The text below walks through data of PMC6548547 (Journal of medicinal chemistry, 2018).

“Also recorded” adds a separate entry of the source. Like-named read-outs stand apart in the source and are kept apart here.

One assay has as its system fibroblasts. It is filed as cell-based.
The test system of the next assay is NPC1 protein. It is filed as cell-based.
For another assay, the system named is EBOV. The note with it: cited from earlier work.
For a further assay, the target named is recombinant cathepsin L (Homo sapiens, UniProt P07711). Kind of assay: Cathepsin L assay. It is filed as biochemical. Conditions: 10 μM and dose-response.
For the next assay, the target named is recombinant cathepsin B (Homo sapiens, UniProt P07858). Kind of assay: Cathepsin B assay. Conditions: 10 μM and dose-response. It is filed as biochemical.
In the next assay the test system is Ebola VLP. It is filed as cell-based, Ebola virus.
Where [1] appears, read: read-out: IC50 of previously reported EBOV inhibitors in vitro.

recombinant cathepsin L, sequence (P07711 114-333): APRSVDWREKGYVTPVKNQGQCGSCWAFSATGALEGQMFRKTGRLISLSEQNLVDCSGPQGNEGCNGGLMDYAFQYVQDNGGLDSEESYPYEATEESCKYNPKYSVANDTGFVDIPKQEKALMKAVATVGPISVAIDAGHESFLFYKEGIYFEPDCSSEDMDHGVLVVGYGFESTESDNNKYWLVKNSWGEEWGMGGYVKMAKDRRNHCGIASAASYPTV

For the molecule `CCN(CC)CCO[C@H]1CC[C@@]2(C)C(=CC[C@@H]3[C@@H]2CC[C@]2(C)C(=O)CC[C@@H]32)C1.Cl` [U18666A, 3-β-(2-[diethylamino]ethoxy)-androst-5-en-17-one, monohydrochloride], in the assay with fibroblasts, the “LysoTracker staining (enlargement of lysosome size)” value (shortened to “LysoTracker staining”) is listed as “increased LysoTracker staining”. The “Cholesterol accumulation (filipin staining), impairment of NPC1 protein function” value in the assay on NPC1 protein is reported as “increased filipin staining”.

As to `COc1ccc2cc1Oc1ccc(cc1)C[C@H]1c3cc(c(OC)cc3CCN1C)Oc1c(OC)c(OC)cc3c1[C@H](C2)N(C)CC3` [Tetrandrine], the “LysoTracker staining” value with fibroblasts was “increased LysoTracker staining”.

In the case of `COC(=O)Nc1nc2ccc(C(=O)c3cccs3)cc2[nH]1` [nocodazole], in the assay on EBOV, the “IC50 of previously reported EBOV inhibitors in vitro” value is “sub-micromolar”.

As to `CN1[C@@H]2CC[C@H]1C[C@@H](OC1c3ccccc3CCc3ccccc31)C2` [Deptropine], the “LysoTracker staining” value with fibroblasts was “increased LysoTracker staining”. On recombinant cathepsin L, the “Inhibition of enzymatic activity of cathepsin L” value is “inhibited; also recorded: blocking cathepsin L activity”.

As to `Cc1ccc(CN2CCCN(C)C3(CCN(C)CC3)C2)cc1C` [ZINC67869167], the “LysoTracker staining” value in the assay on fibroblasts is “increased LysoTracker staining; also recorded: induced enlargement of lysosomes”.

As for `CN(C)c1ccccc1CN1CCCN(Cc2ccccc2N(C)C)C1c1ccncc1` [GANT61], in the assay with fibroblasts, the “LysoTracker staining” value is reported as “increased LysoTracker staining; also recorded: caused enlargement of lysosomes”. For the same molecule, the “Inhibition of enzymatic activity of cathepsin B” value at recombinant cathepsin B is reported as “inhibited”. In addition, the “Inhibition of enzymatic activity of cathepsin L” value at recombinant cathepsin L is “inhibited”.

On to `CC[C@]1(O)C[C@@H]2CN(CCc3c([nH]c4ccccc34)[C@@](C(=O)OC)(c3cc4c(cc3OC)N(C)[C@H]3[C@@](O)(C(N)=O)[C@H](O)[C@]5(CC)C=CCN6CC[C@]43[C@@H]65)C2)C1` [Vindesine], for which, in the assay with Ebola VLP, the Potency entry is reported as “nanomolar range”.

Take `Cc1[nH]c2c(CN3CC(CO)C(CN4CCCC4)C3)cccc2c1C` (centres unmarked) [ZINC91973695]: in the assay on fibroblasts, the “LysoTracker staining” value is “increased LysoTracker staining; also recorded: induced enlargement of lysosomes”.

As to `CC(C)(C)c1ccc(C(=O)CCCN2CCC(OC(c3ccccc3)c3ccccc3)CC2)cc1` [Ebastine], in the assay on fibroblasts, the “LysoTracker staining” value is given as “increased LysoTracker staining”.

Usually IC50 stands for the concentration that inhibits the measured activity by half. Take `CCN(CC)CCNC(=O)c1c(C)[nH]c(/C=C2\C(=O)Nc3ccc(F)cc32)c1C` [sunitinib]: the IC50 in the assay on EBOV (setting [1]) is 1910 nM.

On to `CC(=O)N(C)C1(c2ccccc2)CCN(CCC[C@]2(c3ccc(Cl)c(Cl)c3)CCCN(C(=O)c3ccccc3)C2)CC1` [Osanetant], for which the “LysoTracker staining” value in the assay with fibroblasts was “increased LysoTracker staining; also recorded: induces the enlargement of lysosomes”.

Take `CC[C@]1(O)C[C@@H]2CN(CCc3c([nH]c4ccccc34)[C@@](C(=O)OC)(c3cc4c(cc3OC)N(C)[C@H]3[C@@](O)(C(=O)OC)[C@H](OC(C)=O)[C@]5(CC)C=CCN6CC[C@]43[C@@H]65)C2)C1` [Vinblastine]: the 50% inhibitory concentration (IC50) with EBOV (read-out: Published Compound (IC50)) was 48 nM.

In the case of `COc1cc2c(Oc3ccc4[nH]c(C)cc4c3F)ncnc2cc1OCCCN1CCCC1` [Cediranib], the “LysoTracker staining” value with fibroblasts is “increased LysoTracker staining”.

For `COc1cc2nc(N3CCCN(C)CC3)nc(NC3CCN(Cc4ccccc4)CC3)c2cc1OC` [BIX-01294], the “LysoTracker staining” value in the assay on fibroblasts is reported as “increased LysoTracker staining”. Moreover, the Potency entry in the assay on Ebola VLP is reported as “nanomolar range; also recorded: sub-micromolar”.

For the molecule `Cc1cn(-c2cc(NC(=O)c3ccc(C)c(Nc4nccc(-c5cccnc5)n4)c3)cc(C(F)(F)F)c2)cn1` [nilotinib], the IC50 in the assay with EBOV (setting [1]) was 24300 nM.
